The molecules below were run against human full-length MKNK1 (Homo sapiens (Human), UniProt Q9BUB5, T344D) (assay: MKNK1 kinase high ATP assay (TR-FRET)). Conditions: high ATP (2 mM), 15 min preincubation with enzyme; read-out: MKNK1 IC50.
Sequence of human full-length MKNK1 (Q9BUB5 other isoform, or with tags, fused parts or gaps T344D): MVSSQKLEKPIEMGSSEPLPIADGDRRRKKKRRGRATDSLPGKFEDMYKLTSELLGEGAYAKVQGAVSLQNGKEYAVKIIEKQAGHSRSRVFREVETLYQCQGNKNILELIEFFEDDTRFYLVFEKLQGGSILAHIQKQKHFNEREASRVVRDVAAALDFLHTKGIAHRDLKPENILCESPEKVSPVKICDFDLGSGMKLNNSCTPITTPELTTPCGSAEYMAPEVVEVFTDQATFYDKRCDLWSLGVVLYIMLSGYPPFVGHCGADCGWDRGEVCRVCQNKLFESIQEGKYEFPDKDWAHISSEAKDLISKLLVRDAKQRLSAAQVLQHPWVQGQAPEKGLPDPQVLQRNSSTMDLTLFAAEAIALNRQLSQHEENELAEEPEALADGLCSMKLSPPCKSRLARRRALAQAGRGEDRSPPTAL
Type: biochemical
Experimental: MKNK1 Kinase High ATP Assay
MKNK1-inhibitory activity at high ATP of compounds of the present invention after their preincubation with MKNK1 was quantified employing the TR-FRET-based MKNK1 high ATP assay as described in the following paragraphs.
A recombinant fusion protein of Glutathione-S-Transferase (GST, N-terminally) and human full-length MKNK1 (amino acids 1-424 and T344D of accession number BAA 19885.1), expressed in insect cells using baculovirus expression system and purified via glutathione sepharose affinity chromatography, was purchased from Carna Biosciences (product no 02-145) and used as enzyme. As substrate for the kinase reaction the biotinylated peptide biotin-Ahx-IKKRKLTRRKSLKG (SEQ ID NO: 1, C-terminus in amide form) was used, which can be purchased e.g. from the company Biosyntan (Berlin-Buch, Germany).
For the assay 50 nL of a 100 fold concentrated solution of the test compound in DMSO was pipetted into a black low volume 384 well microtiter plate (Greiner Bio-One, Frickenhausen, Germany), 2 μL of a solution of MKNK1 in aqueous assay buffer [50 mM HEPES pH 7.5, 5 mM MgCl2, 1.0 mM dithiothreitol, 0.005% (v/v) Nonidet-P40 (Sigma)] was added and the mixture was incubated for 15 min at 22° C. to allow pre-binding of the test compounds to the enzyme before the start of the kinase reaction. Then the kinase reaction was started by the addition of 3 μL of a solution of adenosine-tri-phosphate (ATP, 3.3 mM=>final conc. in the 5 μL assay volume is 2 mM) and substrate (0.1 μM=>final conc. in the 5 μL assay volume is 0.06 μM) in assay buffer and the resulting mixture was incubated for a reaction time of 30 min at 22° C. The concentration of MKNK1 was adjusted depending of the activity of the enzyme lot and was chosen appropriate to have the assay in the linear range, typical concentrations were in the range of 0.003 μg/mL. The reaction was stopped by the addition of 5 μL of a solution of TR-FRET detection reagents (5 nM streptavidine-XL665 [Cisbio Bioassays, Codolet, France] and 1 nM anti-ribosomal protein S6 (pSer236)-antibody from Invitrogen [#44921G] and 1 nM LANCE EU-W1024 labeled ProteinG [Perkin-Elmer, product no. AD0071]) in an aqueous EDTA-solution (100 mM EDTA, 0.1% (w/v) bovine serum albumin in 50 mM HEPES pH 7.5).
The resulting mixture was incubated for 1 h at 22° C. to allow the formation of complex between the phosphorylated biotinylated peptide and the detection reagents. Subsequently the amount of phosphorylated substrate was evaluated by measurement of the resonance energy transfer from the Eu-chelate to the streptavidine-XL. Therefore, the fluorescence emissions at 620 nm and 665 nm after excitation at 350 nm were measured in a TR-FRET reader, e.g. a Rubystar (BMG Labtechnologies, Offenburg, Germany) or a Viewlux (Perkin-Elmer). The ratio of the emissions at 665 nm and at […] was taken as the measure for the amount of phosphorylated substrate. The data were normalised (enzyme reaction without inhibitor=0% inhibition, all other assay components but no enzyme=100% inhibition).
With CN(C)C(=O)C1CCc2c(sc3ncnc(Nc4ccn5nccc5c4)c23)C1 (racemic) [Example 1, (RS) N,N-Dimethyl-4-(pyrazolo[1,5-a]pyridin-5-ylamino)-5,6,7,8-tetrahydro[1]benzothieno[2,3-d]pyrimidine-7-carboxamide] the IC50 was 64 nM.
Work on O=C(O)[C@H]1CCc2c(sc3ncnc(Nc4ccn5nccc5c4)c23)C1 [Example 2, (7S)-4-(Pyrazolo[1,5-a]pyridin-5-ylamino)-5,6,7,8-tetrahydro[1]benzothieno[2,3-d]pyrimidine-7-carboxylic acid] yielded an IC50 of 707 nM.
C[C@@H]1COCCN1C(=O)[C@H]1CCc2c(sc3ncnc(Nc4ccn5nccc5c4)c23)C1 [Example 3, [(3R)-3-Methylmorpholin-4-yl][(7S)-4-(pyrazolo[1,5-a]pyridin-5-ylamino)-5,6,7,8-tetrahydro[1]benzothieno[2,3-d]pyrimidin-7-yl]methanone] gave an IC50 of 80 nM.
For CN(C)CCN(C)C(=O)[C@H]1CCc2c(sc3ncnc(Nc4ccn5nccc5c4)c23)C1 [Example 4, (7S)—N-[2-(Dimethylamino)ethyl]-N-methyl-4-(pyrazolo[1,5-a]pyridin-5-ylamino)-5,6,7,8-tetrahydro[1]benzothieno[2,3-d]pyrimidine-7-carboxamide], the IC50 was 21 nM.
With C[C@@H]1CN(C(=O)[C@H]2CCc3c(sc4ncnc(Nc5ccn6nccc6c5)c34)C2)C[C@H](C)O1 [Example 5, [(2R,6S)-2,6-Dimethylmorpholin-4-yl][(7S)-4-(pyrazolo[1,5-a]pyridin-5-ylamino)-5,6,7,8-tetrahydro[1]benzothieno[2,3-d]pyrimidin-7-yl]methanone] the IC50 was 21 nM.
In the case of CN(C)[C@@H]1CCN(C(=O)[C@H]2CCc3c(sc4ncnc(Nc5ccn6nccc6c5)c34)C2)C1 [Example 6, [(3R)-3-(Dimethylamino)pyrrolidin-1-yl][(7S)-4-(pyrazolo[1,5-a]pyridin-5-ylamino)-5,6,7,8-tetrahydro[1]benzothieno[2,3-d]pyrimidin-7-yl]methanone], the IC50 is reported as 12 nM.
C[C@H]1COCCN1C(=O)[C@H]1CCc2c(sc3ncnc(Nc4ccn5nccc5c4)c23)C1 [Example 7, [(3S)-3-Methylmorpholin-4-yl][(7S)-4-(pyrazolo[1,5-a]pyridin-5-ylamino)-5,6,7,8-tetrahydro[1]benzothieno[2,3-d]pyrimidin-7-yl]methanone] was tested, and the IC50 was 65 nM.
Work on COCCN(C)C(=O)[C@H]1CCc2c(sc3ncnc(Nc4ccn5nccc5c4)c23)C1 [Example 8, (7S)—N-(2-Methoxyethyl)-N-methyl-4-(pyrazolo[1,5-a]pyridin-5-ylamino)-5,6,7,8-tetrahydro[1]benzothieno[2,3-d]pyrimidine-7-carboxamide] yielded an IC50 of 42 nM.
With C[C@H]1CN(C(=O)[C@H]2CCc3c(sc4ncnc(Nc5ccn6nccc6c5)c34)C2)C[C@H](C)O1 [Example 9, [(2S,6S)-2,6-Dimethylmorpholin-4-yl][(7S)-4-(pyrazolo[1,5-a]pyridin-5-ylamino)-5,6,7,8-tetrahydro[1]benzothieno[2,3-d]pyrimidin-7-yl]methanone] the IC50 was 49 nM.
Molecule C[C@@H]1CN(C(=O)[C@H]2CCc3c(sc4ncnc(Nc5ccn6nccc6c5)c34)C2)C[C@@H](C)O1 [Example 10, [(2R,6R)-2,6-Dimethylmorpholin-4-yl][(7S)-4-(pyrazolo[1,5-a]pyridin-5-ylamino)-5,6,7,8-tetrahydro[1]benzothieno[2,3-d]pyrimidin-7-yl]methanone] has an IC50 of 33 nM.
O=C([C@H]1CCc2c(sc3ncnc(Nc4ccn5nccc5c4)c23)C1)N1CCOCC1 [Example 11, Morpholin-4-yl[(7S)-4-(pyrazolo[1,5-a]pyridin-5-ylamino)-5,6,7,8-tetrahydro[1]benzothieno[2,3-d]pyrimidin-7-yl]methanone] gave an IC50 of 62 nM.
O=C([C@H]1CCc2c(sc3ncnc(Nc4ccn5nccc5c4)c23)C1)N1CC2CC2C1 (stereo partly drawn) [Example 12, 3-Azabicyclo[3.1.0]hex-3-yl[(7S)-4-(pyrazolo[1,5-a]pyridin-5-ylamino)-5,6,7,8-tetrahydro[1]benzothieno[2,3-d]pyrimidin-7-yl]methanone] showed an IC50 of 24 nM.
In the case of C[C@@H]1COC[C@H](C)N1C(=O)[C@H]1CCc2c(sc3ncnc(Nc4ccn5nccc5c4)c23)C1 [Example 13, [(3R,5S)-3,5-Dimethylmorpholin-4-yl][(7S)-4-(pyrazolo[1,5-a]pyridin-5-ylamino)-5,6,7,8-tetrahydro[1]benzothieno[2,3-d]pyrimidin-7-yl]methanone], the IC50 is reported as 17 nM.
Molecule C[C@@H]1COC[C@@H](C)N1C(=O)[C@H]1CCc2c(sc3ncnc(Nc4ccn5nccc5c4)c23)C1 [Example 14, [(3R,5R)-3,5-Dimethylmorpholin-4-yl][(7S)-4-(pyrazolo[1,5-a]pyridin-5-ylamino)-5,6,7,8-tetrahydro[1]benzothieno[2,3-d]pyrimidin-7-yl]methanone] has an IC50 of 7 nM.
CC(C)N(C)C(=O)[C@H]1CCc2c(sc3ncnc(Nc4ccn5nccc5c4)c23)C1 [Example 16, (7S)—N-Isopropyl-N-methyl-4-(pyrazolo[1,5-a]pyridin-5-ylamino)-5,6,7,8-tetrahydro[1]benzothieno[2,3-d]pyrimidine-7-carboxamide] was tested, and the IC50 was 19 nM.
CN(C)C(=O)[C@H]1CCc2c(sc3ncnc(Nc4ccn5nccc5c4)c23)C1 [Example 17, (7S)—N,N-Dimethyl-4-(pyrazolo[1,5-a]pyridin-5-ylamino)-5,6,7,8-tetrahydro[1]benzothieno[2,3-d]pyrimidine-7-carboxamide] showed an IC50 of 33 nM.
In the case of CN(CC(F)F)C(=O)[C@H]1CCc2c(sc3ncnc(Nc4ccn5nccc5c4)c23)C1 [Example 18, (7S)—N-(2,2-Difluoroethyl)-N-methyl-4-(pyrazolo[1,5-a]pyridin-5-ylamino)-5,6,7,8-tetrahydro[1]benzothieno[2,3-d]pyrimidine-7-carboxamide], the IC50 is reported as 19 nM.
Work on CN(CC(C)(C)O)C(=O)[C@H]1CCc2c(sc3ncnc(Nc4ccn5nccc5c4)c23)C1 [Example 19, (7S)—N-(2-Hydroxy-2-methylpropyl)-N-methyl-4-(pyrazolo[1,5-a]pyridin-5-ylamino)-5,6,7,8-tetrahydro[1]benzothieno[2,3-d]pyrimidine-7-carboxamide] yielded an IC50 of 21 nM.
In the case of O=C([C@H]1CCc2c(sc3ncnc(Nc4ccn5nccc5c4)c23)C1)N1CCC1 [Example 20, Azetidin-1-yl[(7S)-4-(pyrazolo[1,5-a]pyridin-5-ylamino)-5,6,7,8-tetrahydro[1]benzothieno[2,3-d]pyrimidin-7-yl]methanone], the IC50 is reported as 26 nM.
CCN(CCO)C(=O)[C@H]1CCc2c(sc3ncnc(Nc4ccn5nccc5c4)c23)C1 [Example 21, (7S)—N-Ethyl-N-(2-hydroxyethyl)-4-(pyrazolo[1,5-a]pyridin-5-ylamino)-5,6,7,8-tetrahydro[1]benzothieno[2,3-d]pyrimidine-7-carboxamide] was tested, and the IC50 was 19 nM.
Molecule N#CC1CN(C(=O)[C@H]2CCc3c(sc4ncnc(Nc5ccn6nccc6c5)c34)C2)C1 [Example 22, 1-{[(7S)-4-(Pyrazolo[1,5-a]pyridin-5-ylamino)-5,6,7,8-tetrahydro[1]benzothieno[2,3-d]pyrimidin-7-yl]carbonyl}azetidine-3-carbonitrile] has an IC50 of 21 nM.
For O=C([C@H]1CCc2c(sc3ncnc(Nc4ccn5nccc5c4)c23)C1)N1CC(F)(F)C1 [Example 23, (3,3-Difluoroazetidin-1-yl)[(7S)-4-(pyrazolo[1,5-a]pyridin-5-ylamino)-5,6,7,8-tetrahydro[1]benzothieno[2,3-d]pyrimidin-7-yl]methanone], the IC50 was 23 nM.
For O=C([C@H]1CCc2c(sc3ncnc(Nc4ccn5nccc5c4)c23)C1)N1CC(O)C1 [Example 24, (3-Hydroxyazetidin-1-yl)[(7S)-4-(pyrazolo[1,5-a]pyridin-5-ylamino)-5,6,7,8-tetrahydro[1]benzothieno[2,3-d]pyrimidin-7-yl]methanone], the IC50 was 20 nM.
With CN(CCNC(=O)OC(C)(C)C)C(=O)[C@H]1CCc2c(sc3ncnc(Nc4ccn5nccc5c4)c23)C1 [Example 25, tert-Butyl [2-(methyl{[(7S)-4-(pyrazolo[1,5-a]pyridin-5-ylamino)-5,6,7,8-tetrahydro[1]benzothieno[2,3-d]pyrimidin-7-yl]carbonyl}amino)ethyl]carbamate] the IC50 was 13 nM.

— patent US10487092B2, “Pyrazolopyridinamines as MKNK1 and MKNK2 inhibitors” (BAYER PHARMA AKTIENGESELLSCHAFT, priority 2014, dated 2019)
